From publication PMC3443238, “Synthesis and Antiangiogenic Activity of N-Alkylated Levamisole Derivatives” (PLoS ONE, 2012)
Counter-ions that a name gives are not always drawn.

Legend:
tumor growth = conditions: 12 mg/kg in nude mice; cited from earlier work
[1] = tested on: human umbilical vein endothelial cells (HUVECs) in co-culture with normal human dermal fibroblasts (NHDF); test: in vitro angiogenesis assay, HUVEC-NHDF co-culture, CD31 immunostaining; assay type: cell-based; conditions: 1 mM
Description: The antiangiogenic effects of the compounds were determined in a previously developed assay, designed to evaluate the growth and differentiation of human umbilical vein endothelial cells (HUVECs) in co-culture with normal human dermal fibroblasts (NHDF). […] The cluster morphology known from (S)-levamisole, was also observed for tetramisole (2) (Figure 5B and Table 1), p-bromolevamisole (3) (Figure 5C and Table 1), and N-methyllevamisoles (7a, b), with the latter mentioned showing a slightly more pronounced effect (Figure 5E and F, Figure 6 A–D, Table 1). […] Compound 4 (Figure 5D and Table 1), on the other hand, inhibited the capillary network formation to give small cords exclusively, which is reminiscent of the effect of suramin (5) (Figure 5N and Table 1), another well-known angiogenesis inhibitor [44], [51].
Co-culture cell assays were performed according to a method described previously, [44]. Briefly, 10^3 NHDFs were cultured in each well of a 96-well microtiter plate in NHDF standard medium (100 μL, FGM-2 Bullet kit) at 37°C in an atmosphere containing 5% CO2. After 3 days the medium was removed and 10^3 HUVECs were seeded onto the NHDF in TFSM2 medium (135 μL). The samples of the individual compounds were prepared by weight and dissolved in a concentration of […] in DMSO, PBS, or Milli-Q water followed by pH adjustment, and sterile filtration through 0.22 μm filters. Medium, buffer controls or test samples of 15 µL were added to each well containing the HUVEC–NHDF co-culture and were incubated for 3 days. Experiments were repeated 2–4 times with identical results.
HUVEC and fibroblasts were stained with a CD31 antibody according to the method previously described, [44]. Briefly, the cells were washed with PBS, fixed with ethanol, blocked with TTN buffer, incubated with mouse anti-human CD31 diluted 1∶250 in TTN buffer, washed in TTN buffer and incubated with alkaline phosphatase-conjugated goat anti-mouse IgG diluted 1∶1000 in TTN buffer. Bound antibody was subsequently visualised with BCIP/NBT and inspected in an Olympus IX70 microscope and photographed with an Olympus DP12 digital camera (Magnification: 40x). Image analysis was carried out using the program AnalySIS (Soft Imaging Systems, Münster, Germany).

[2] = molecular target: T1, human placenta alkaline phosphatase (HPAP) (Homo sapiens, UniProt P05187); test: Alkaline phosphatase assay (p-nitrophenyl phosphate), human placenta enzyme; assay type: biochemical
T1 construct: alkaline phosphatase (0.01 U/mL) from human placenta or bovine kidneys; from tissue; host or cells: human placenta
T1 sequence (P05187 23-506 limits assumed): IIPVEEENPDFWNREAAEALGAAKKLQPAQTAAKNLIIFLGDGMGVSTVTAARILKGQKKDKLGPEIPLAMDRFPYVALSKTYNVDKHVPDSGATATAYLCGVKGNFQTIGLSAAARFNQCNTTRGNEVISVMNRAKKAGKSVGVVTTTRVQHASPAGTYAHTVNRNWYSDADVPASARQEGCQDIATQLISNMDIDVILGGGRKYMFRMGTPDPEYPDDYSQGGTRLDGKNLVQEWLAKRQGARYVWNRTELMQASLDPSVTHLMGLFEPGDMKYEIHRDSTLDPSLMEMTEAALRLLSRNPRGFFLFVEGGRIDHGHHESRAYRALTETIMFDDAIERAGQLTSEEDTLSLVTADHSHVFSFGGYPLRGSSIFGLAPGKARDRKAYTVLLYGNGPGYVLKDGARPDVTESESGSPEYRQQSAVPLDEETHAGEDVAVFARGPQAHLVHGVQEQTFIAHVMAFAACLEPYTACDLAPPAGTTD
Description: (§1) The levamisole derivatives were diluted to 2.5, 5 and 10 mM in DMSO. Samples (10 µL) and 90 µL solution of alkaline phosphatase (0.01 U/mL) from human placenta or bovine kidneys diluted in substrate buffer were added to a 96-well microtiter plate and incubated for 35 minutes at room temperature. Hereafter, 100 µL p-nitrophenyl phosphate (2 mg/mL) were added, and the plate was read at 405 nm with background subtraction at 650 nm on a Versamax Elisa reader (Molecular Devices, Sunnyvale, CA, USA) after 24 and 35 min. Results were obtained as the mean of double determinations. The EC50 values were read from the curve at half maximal absorbance.

[3] = molecular target: T2, bovine kidney tissue non-specific alkaline phosphatase (TNAP) (Bos taurus, UniProt P09487); test: Alkaline phosphatase assay (p-nitrophenyl phosphate), bovine kidney enzyme; assay type: biochemical
T2 construct: alkaline phosphatase (0.01 U/mL) from human placenta or bovine kidneys; from tissue; host or cells: bovine kidneys
T2 sequence (P09487 18-499 limits assumed): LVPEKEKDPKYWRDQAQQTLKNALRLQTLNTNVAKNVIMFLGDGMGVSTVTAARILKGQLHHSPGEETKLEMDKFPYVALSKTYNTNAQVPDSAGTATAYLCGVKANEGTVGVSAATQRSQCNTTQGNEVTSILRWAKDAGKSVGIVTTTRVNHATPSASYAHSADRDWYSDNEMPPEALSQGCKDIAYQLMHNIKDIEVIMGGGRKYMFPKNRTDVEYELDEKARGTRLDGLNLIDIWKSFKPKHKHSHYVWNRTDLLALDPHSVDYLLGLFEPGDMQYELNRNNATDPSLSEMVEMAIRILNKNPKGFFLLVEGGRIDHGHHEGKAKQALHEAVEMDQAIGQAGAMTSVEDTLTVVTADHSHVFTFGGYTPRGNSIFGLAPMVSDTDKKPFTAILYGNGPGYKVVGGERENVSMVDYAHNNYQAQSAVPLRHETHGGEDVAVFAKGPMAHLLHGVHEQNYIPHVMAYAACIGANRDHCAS
Description: as §1

c1ccc([C@H]2CN3CCSC3=N2)cc1 [Compound 1, (S)-levamisole hydrochloride, reference compound]
tumor growth inhibition (tumor growth): significant tumor growth inhibition | Grading [1]: ++ (clusters with area >4%) | Morphology [1]: Clusters | Area % (percent of the area covered by HUVEC as observed by CD31 staining) ([1]; medium control 10.2, DMSO 8.4): 7.5% | IC50 [2]: 1100 µM | IC50 [3]: 600 µM
